Assay results: PMC9388626, “STUB1 is an intracellular checkpoint for interferon gamma sensing” (Scientific Reports, 2022)

Legend:
B16-F10 cells [1] = assay: Western blot, IRF1, STAT1 and phospho-Tyr701-STAT1 at 2 h post IFNγ; assay type: cell-based, murine; settings: Stub1-null B16-F10, 2 h
Experimental: Cells were dissociated from the wells with 0.25% trypsin (Gibco, 25200056). After rinsing with 0.5 ml PBS, the cell pellets were lysed with chilled cell lysis buffer (Cell Signaling Technology, #9803) supplemented with Halt protease inhibitor cocktail (Thermo Scientific, #78430) and phosphatase inhibitor (Sigma-Aldrich, # 4906837001) for 30 min with intermittent vortexing. The lysate was transferred into PCR-strip tubes and sonicated in a chilled water bath sonicator (QSonica). Lysates were clarified by centrifugation at 15,000 rpm at 4 °C for 15 min. Protein concentration was determined using BCA protein assay kit (Pierce, #23225). The lysates were mixed with LDS sample buffer (Life Technologies, NP0008) and sample reducing agent (Life Technologies, NP0009), followed by heating at 70 °C for 10 min to fully denature the protein. […] Membrane blots were pre-stained with total protein stain (LI-COR, # 926-11016) and imaged with Odyssey CLx. […] The blots were finally probed, for overnight at 4 °C, with the appropriate primary antibodies diluted in Intercept (TBS) blocking buffer supplemented with 0.1% (v/v) Tween-20, followed by the secondary antibodies (IRDye 800CW donkey anti-rabbit or anti-mouse IgG, LI-COR) for 1 h at room temperature. Fluorescent signals were imaged and quantified using Odyssey CLx and Image Studio v5.0. […]

B16-F10 cells [2] = assay: Gene expression profiling with NanoString PanCancer IO 360; assay type: cell-based, murine; settings: Stub1-null B16-F10, 0.03 ng ml^−1 IFNγ, 6 h or 24 h
Experimental: After overnight incubation, the culture media were replaced with fresh media (DMEM + 10% FBS) supplemented with 0.03 ng ml^−1 of recombinant mouse IFNγ (R&D Systems, #485-MI-100). Total RNA from untreated cells (24 h) and IFNγ-treated cells (6 or 24 h) were extracted with RNeasy plus mini kit (Qiagen, 74134) according to manufacturer’s protocol. An input of 150 ng RNA from each sample was mixed with the NanoString reporter and capture probes (nCounter Mouse PanCancer IO 360, # XT-CSPS-MIO360-12), and incubated at 65 °C for 20 h. The hybridized samples were processed on the nCounter prep station, and the resulting cartridge was scanned by the nCounter digital analyzer using 555 fields of view. Raw count data were evaluated for quality control and normalized with 19 housekeeping genes using nSolver 4.0 software (Supplementary Table S3). Tlk2 was excluded from the housekeeping gene due to weak expression (RNA counts < 80). […] Weakly expressed genes, where the normalized RNA counts were consistently less than 80 in all samples, were excluded from fold change analysis, resulting in an evaluable set of 493 out of 750 genes (Supplementary Fig. 4a). As an overview, all 750 targeted genes were included in the scatter plot analysis (Supplementary Fig. 4b–d).

PC-3 cells = assay: Lumit immunoassay, phospho-Tyr701-STAT1; assay type: cell-based, human; settings: PC-3, PTPN2 or STUB1 loss, 30 min
Experimental: (§1) Parental and CRISPR-edited tumour cells were seeded in a cell density of 12,500 (DU145), 15,000 (PC-3), or 30,000 (MCF7) per well in 384-well plate (Greiner Bio-One, #781080) filled with 25 µl culture media + 10% FBS. After 20–24 h incubation, the cells were treated with recombinant human IFNγ (R&D Systems, #285-IF-100) by adding an equal volume of the complete culture media containing the cytokine. After 30 min of stimulation, the culture media were removed by gentle spin using Blue Washer (BlueCatBio). Lumit immunoassay (Promega, #W1202) was performed according to manufacturer’s instrutions. The assay buffer was supplemented with Halt protease and phosphatase inhibitor cocktail (Thermo Scientific, #78443). The cells were lyzed with 12 µl per well of lysis solution (0.02% digitonin) for 20 min. The cell lystates were probed for 90 min with 12 µl of mixture of primary antibodies, which include anti-STAT1 rabbit antibody (Cell Signaling Technology, #14994), anti-pSTAT1 (Tyr701) mouse antibody (Abcam, ab29045), Lumit anti-mouse antibody-LgBiT (Promega) and Lumit anti-rabbit antibody-SmBiT (Promega). Final concentration of each antibody is 0.15 µg ml^−1. After 2 min incubation in the presence of the Lumit detection reagent (6 µl), the luminescence signals were detected by Infinite M1000 PRO (Tecan).

MCF7 cells = assay: Lumit immunoassay, phospho-Tyr701-STAT1; assay type: cell-based, human; settings: MCF7, PTPN2 or STUB1 loss, 30 min
Experimental: as §1

DU145 cells = assay: Lumit immunoassay, phospho-Tyr701-STAT1; assay type: cell-based, human; settings: DU145, PTPN2 or STUB1 loss, 30 min
Experimental: as §1

[3] = system: B16-F10 tumour in C57BL/6 J mice; assay: Syngeneic B16-F10 model, GVAX then anti-PD-1; assay type: in vivo, mouse; settings: N 15, in mm³ (unit assumed)
Experimental: Female C57BL/6 J mice (stock no: 000664, Jackson Laboratory) between 7–8 weeks of age weighing approximately 18–22 g were used for the study. […] One day after tumour inoculation, mice were dosed subcutaneously into the abdomen with 1.0 × 10^6 per 100 µl GM-CSF-secreting B16 (GVAX) cells that had been irradiated with 35 Gy from a ^137Cs source discharging 124 rads min^−1. GVAX treatment was repeated on day 4. […] The treatment was repeated on day 9, 12, and 15. The start of the study where tumour inoculation is conducted is designated as day 0.
Body weights were taken twice per week.

| Substance | Early induction of IRF1 and phospho-Tyr701-STAT1 (B16-F10 cells [1]) | Induction of interferon-stimulated genes (B16-F10 cells [2]) | Phosphorylation of Tyr701-STAT1 (PC-3 cells) | Phosphorylation of Tyr701-STAT1 (MCF7 cells) | Phosphorylation of Tyr701-STAT1 (DU145 cells) | tumour volume (Fig. 6b) ([3]; day 5, Mean) | tumour volume (Fig. 6b) ([3]; day 8, Mean) | tumour volume (Fig. 6b) ([3]; day 10, Mean) | tumour volume (Fig. 6b) ([3]; day 12, Mean) | tumour volume (Fig. 6b) ([3]; day 14, Mean) | tumour volume (Fig. 6b) ([3]; day 16, Mean) |
| --- | --- | --- | --- | --- | --- | --- | --- | --- | --- | --- | --- |
| IFNγ | Loss of Stub1 lowers the stimulating threshold of IFNγ | enhanced response to IFNγ treatment | increased the cells’ response to IFNγ in a dose-dependent manner | increased the cells’ response to IFNγ in a dose-dependent manner | increased the cells’ response to IFNγ in a dose-dependent manner |  |  |  |  |  |  |
| gStub1 #1 (guide GCATTGCTAAGAAGAAGCGC; chemistry not given here) |  |  |  |  |  | 50.28 | 251.2 | 457.3 | 680.5 | 866 | 944.8 |
